Assays:
NaNO2 induced anoxia = NaNO2 induced anoxia in mice; format: in vivo, mouse; conditions: 70 mg/kg p.o.; NaNO2 225 mg/kg ip
Wistar rat [1] = experiment: Social recognition in the Wistar rat; format: in vivo; conditions: dose of 20 mg/kg (printed for Example 13); second encounter after 2 hours
Source text: Initially described in 1982 by THOR and HOLLOWAY (J. Comp. Physiol., 1982, 96, 1000-1006), the social recognition test has subsequently been proposed by various authors (DANTZER et al., Psychopharmacology, 1987, 91, 363-368; PERIO et al., Psychopharmacology, 1989, 97, 262-268) for studying the mnemocognitive effects of new compounds. The test is based on the natural expression of the olfactory memory of the rat and its natural tendency to forget, and allows evaluation of memorisation, by recognition of a young congeneric animal, by an adult rat. A young rat (21 days), taken at random, is placed for 5 minutes in the cage housing an adult rat. With the aid of a video device, the experimenter observes the social recognition behaviour of the adult rat and measures its overall duration. The young rat is then removed from the adult rat's cage and is placed in its own cage until the second introduction. The adult rat is given the compound under test and, after 2 hours, is again brought into the presence (5 minutes) of the young rat. The social recognition behaviour is then observed again and its duration measured. The assessment criterion is the difference (T2−T1), expressed in seconds, between the “recognition” times of the 2 encounters.

Wistar rat [2] = experiment: Object recognition in the Wistar rat; format: in vivo; conditions: dose of 3 mg/kg; second session 24 hours later
Source text: The object recognition test in the Wistar rat was initially developed by ENNACEUR and DELACOUR (Behav. Brain Res., 1988, 31, 47-59). The test is based on the spontaneous exploratory activity of the animal and has the characteristics of episodic memory in humans. This memory test is sensitive to ageing (SCALI et al., Eur. J. Pharmacol., 1997, 325, 173-180) and to cholinergic dysfunctions (BARTOLINI et al., Pharm. Biochem. Behav. 1996, 53(2), 277-283) and is based on the differences in the exploration of 2 objects of fairly similar shape—one familiar, the other new. Prior to the test, the animals are habituated to the environment (an enclosure without an object). In the course of a first session, the rats are placed (3 minutes) in the enclosure, in which there are 2 identical objects. The duration of exploration is measured for each object. In the course of the second session (3 minutes), 24 hours later, 1 of the 2 objects is replaced by a new object. The duration of exploration is measured for each object. The assessment criterion is the difference, Delta, expressed in seconds, between the exploration times for the new object and for the familiar object in the course of the second session.

Structure (SMILES) | prolongation of survival (NaNO2 induced anoxia) [%] | difference (T2−T1) between the recognition times of the 2 encounters (Wistar rat [1]) [s] | difference, Delta, between the exploration times for the new object and the familiar object (Wistar rat [2]) [s]
CCC(=O)Oc1c(OC)cc(Cl)c2c1C13CCN(C)C(C2)C1C=C(OC)C(OC(=O)CC)C3 (stereo not drawn) [Example 5, (9α,13α)-1-Chloro-3,7-dimethoxy-17-methyl4-(propionyloxy)7,8-didehydromorphinan-6-yl propionate] | 31 | -31 | 
COC1=CC2C3Cc4c(Br)cc(OC)c(O)c4C2(CCN3C)CC1O (stereo not drawn) [Example 13, (9α,13α)-1-Bromo-3,7-dimethoxy-17-methyl-7,8-didehydromorphinan-4,6-diol] |  | -36 | 
COC1=CC2C3Cc4c(Cl)cc(OC)c(O)c4C2(CCN3C)CC1O (stereo not drawn) [Example 4, (9α,13α)-1-Chloro-3,7-dimethoxy-17-methyl-7,8-didehydromorphinan-4,6-diol] |  |  | 10

Reference: patent US20060009480A1, “Sinomenine and sinomenine compounds, synthesis and use” (priority 2002, published 2006)
